Laboratory results as given in US12453731B2, “Aniline-based WDR5 protein-protein interaction inhibitor, and preparation method and use thereof” (CHINA PHARMACEUTICAL UNIVERSITY, priority 2019, dated 2025).

Experiments:
MLL1-WDR5 PPI = MLL1-WDR5 PPI (Homo sapiens (Human), UniProt P61964); assay: fluorescent probe assay of MLL1-WDR5 protein-protein interaction inhibition; assay type: binding; conditions: fluorescent probe based on MLL1 peptide, incubation 0.5 hrs, read-out: MLL1-WDR5 PPI inhibiting activity IC50
Protocol: In the present disclosure, a fluorescent molecular probe was constructed based on a MLL1 peptide fragment binding to WDR5, for use as a method for study on an aniline compound interfering with WDR5 protein-protein interaction, to determine an inhibition rate of the aniline compound at various concentrations, and then compute the IC50 value. Specific experimental steps: 20 μL of WDR5 protein, 20 μL of a fluorescent probe, and 20 μL of a compound of different concentration gradients were added to a 384-well plate respectively. After incubation for 0.5 hrs, the fluorescence was read on a multifunctional microplate reader at an excitation wavelength of 485 nm and an emission wavelength of 535 nm, to compute the mP value. The inhibition rate was computed as per the formula below, and then the IC50 value was computed using GraphPad software.

[1] = tested on: methylation level of H3K4; assay: inhibition of the methylation level of H3K4 (methyltransferase activity); assay type: biochemical
[2] = tested on: MV4-11 human acute mononuclear leukemia cells; assay: anti-proliferative activity against leukemia cells MV4-11; assay type: cell-based; conditions: Homo sapiens, MV4-11, MV4-11 cells; read-out: GI50 (MV-411)
Source text: (§1) Some compounds of the present disclosure have also been tested for the antiproliferative activity against leukemia cells.

[3] = tested on: Molm-13 human acute myeloid leukemia cells; assay: anti-proliferative activity against leukemia cells Molm-13; assay type: cell-based; conditions: Homo sapiens, MOLM-13, Molm-13 cells
Source text: as §1

[4] = tested on: MLL1 (H3K4me1/2/3 expression level); assay: Western blot, methyltransferase function of MLL1 at the cellular level; assay type: cell-based; conditions: FIG. 1
Source text: Moreover, some compounds have also been tested by Western-blot.

Hox and Meis-1 genes = assay: RT-PCR, expression of downstream Hox and Meis-1 genes at the cellular level; assay type: cell-based; conditions: FIG. 2
Source text: Furthermore, some of the compounds of the present disclosure have also been subjected to a RT-PCR experiment at the cellular level. The results of the inhibitory effect of some compounds on the expression levels of downstream Hox and Meis-1 genes at the cellular level are shown in FIG. 2.

MV4-11 tumor = assay: MV4-11 nude mouse xenograft tumor model; assay type: in vivo; conditions: MV4-11 xenograft in nude mice, oral administration, FIG. 3
Source text: In addition, some of the compounds of the present disclosure have also been tested for the anti-tumor activity at the animal level. A nude mice xenograft tumor model of leukemia cells MV4-11 was selected for oral administration.

Row | Compound | IC50 (MLL1-WDR5 PPI) | Whether the methylation level of H3K4 was inhibited [1] | GI50 [2] | GI50 [3] | inhibition of catalytic activity of MLL1, expression level of H3K4me1/2/3 [4] | expression levels of Hox and Meis-1 genes (Hox and Meis-1 genes) | inhibition of tumor growth (MV4-11 tumor)
1 | CN1CCN(c2cc(F)c(-c3ccc(C(=O)NCCCN4CCOCC4)cc3)cc2Nc2ncnc(Cl)c2N)CC1 [Example 69] | 0.021 µM | Yes | 25.6 µM | 17.3 µM | – | – | –
2 | CN1CCN(c2cc(F)c(-c3ccc(C(=O)N4CCC(O)CC4)cc3)cc2Nc2ncnc(Cl)c2N)CC1 [Example 70] | 0.033 µM | Yes | 20.2 µM | 13.2 µM | – | – | –
3 | CN1CCN(c2cc(F)c(-c3ccc(C(=O)NCC4CCOCC4)cc3)cc2Nc2ncnc(Cl)c2N)CC1 [Example 71, 5″-((5-amino-6-chloropyrimidin-4-yl)amino)-2′-fluoro-4″-(4-methylpiperazin-1-yl)-N-((tetrahydro-2H-pyran-4-yl)methyl)-[1,1′-biphenylyl]-4-carboxamide] | 0.036 µM | Yes | 15.7 µM | 12.3 µM | – | – | –
4 | CN1CCN(c2cc(F)c(-c3ccc(C(=O)N(C)C)cc3)cc2Nc2ncnc(Cl)c2N)CC1 [Example 72, 5″-((5-amino-6-chloropyrimidin-4-yl)amino)-2′-fluoro-N,N-dimethyl-4″-(4-methylpiperazin-1-yl)-[1,1′-biphenyl]-4-carboxamide] | 0.029 µM | Yes | 12.6 µM | 13.1 µM | inhibit the catalytic activity of MLL1 dose-dependently | down-regulate the expression levels of Hox and Meis-1 genes dose-dependently | inhibit the tumor growth dose-dependently
